Measurements taken from US20040043940A1, “Use of ectoin or ectoin derivatives for protecting stress proteins in the skin” (priority 2000, published 2004).

System: HSP 72/73
Experiment: Heat-shock induction of HSP 72/73 stress proteins in primary human keratinocytes (immunofluorescence)
Assay type: cell-based
Procedure: This was ascertained by spreading primary human keratinocytes on microscopic slides and cultivating them over a period of 3 days at 37° C. in KGM 2 medium (Cell Systems). The human keratinocytes were incubated to a confluence of approximately 60% and part of the culture was then treated with 1% ectoin based on the supernatant of the culture medium. The untreated portion of the culture served as control. Following treatment, the human keratinocytes were incubated for a further 16 hours at 37° C. The cultures were then subjected to heat shock by raising the temperature quickly from 37° C. to 44° C. The experiments were carried out by the method proposed by Holland et al in J. Invest Dermatol. (1993), 101: 196-199. Following this heat-shock treatment, incubation was carried out at 37° C. for a further 2 hours. The cells were then fixed. Fixing was carried out in 3 stages:
fixing solution A (1% CH3COOH/40% ethanol in deionized water v/v, 4° C.), 5 min,
fixing solution B (96% ethanol in deionized water v/v, 4° C.), 5 min,
fixing solution A, 5 min.
The stress proteins produced were stained by immunofluorescence, which process involved the following steps:
blockage of non-specific bonding sites with a blocking agent (10% BSA in phosphate buffer): 45 min, 37° C.,
incubation with the primary antibody anti HSP 72/73 (1:200 dilution in phosphate buffer): 45 min, 37° C.,
incubation with the FITC-conjugated secondary antibody goat anti mouse (1:200 dilution in phosphate buffer): 45 min, 37° C.,
covering of the specimens with fluorescent covering medium and slide cover glasses.
The stess proteins were determined quantitatively as HSP 72/73 under a microscope (BX40, filter: WB, burner: U-RFL-T, Olympus).

Structure (SMILES): CC1=N[C@H](C(=O)O)CCN1 [ectoin, (S)-1,4,5,6-tetrahydro-2-methyl-4-pyrimidinecarboxylic acid]
- protection of human skin cells against stress factors (in vitro, ectoin-treated versus untreated skin cells): significantly better
- induction of HSP 72/73 stress proteins (primary human keratinocytes, 1% ectoin pretreatment 16 hours, heat shock 37° C. to 44° C., compared with untreated cultures): significantly faster
- period until HSP 72/73 concentration maximum (primary human keratinocytes, 1% ectoin pretreatment, heat shock 44° C., untreated cells 60 minutes): 30 min
